One assay has as its target SARS-CoV-2 Spike protein (Severe acute respiratory syndrome coronavirus 2, UniProt P0DTC2). The experiment in a line: Ternary binding of SARS-CoV-2 Spike protein (293T cells expressing Spike-GFP, IgG-AF647, flow cytometry). In kind it is cell-based. The settings on record: 293T cells expressing Spike-GFP; IgG-AF647 10 μg/ml; repeat values/batches listed separately; read-out: SARS-CoV-2 Ternary binding EC50. On the procedure: 293T cells stably expressing SARS-CoV-2 Spike-GFP protein on their surface were incubated with a concentration range of compound for 30 minutes at 37° C.-5% CO2 in Roswell Park Memorial Institute Medium (RPMI)-5% low IgG serum with 10 μg/ml IgG-Alexa Fluor® 647 (AF647). The cells were washed twice using the same medium, resuspended in phosphate-buffered saline (PBS)-1% bovine serum albumin (BSA), and acquired on Attune™ NxT Flow Cytometer. In some embodiments, mean fluorescence intensity of AF647 as well as […] AF647 positive in GFP positive gate are reported as readouts in this assay.
Background: Flow cytometry measures light scatter and fluorescence of single cells or particles in a stream.

Assay [1] concerns the target T1, SARS-CoV-2 Spike A (wild-type) (Severe acute respiratory syndrome coronavirus 2, UniProt P0DTC2).
T1 construct: purchased Meso Scale Diagnostics, LLC V-PLEX SARS-CoV-2 Panel 13 (ACE2) Kit / Panel 23 (ACE2) Kit
The experiment in a line: MSD ACE2 competition assay (inhibition of Spike binding with ACE2, ECL), A (wild-type). The settings on record: IC50 Wild Type, Wild Type Spike.

Positions of bridges follow the written chain, without caps; N, C: chain ends. Non-standard residues stand in square brackets, D forms with d. Residues, ends and D or L forms follow the SMILES beside them. No end group written: not given here. Tic = O=C(O)[C@@H]1Cc2ccccc2CN1; Aib = CC(C)(N)C(=O)O A value given as a limit tells only on which side of the number the result lay.

Usually EC50 stands for the concentration giving half of the maximal effect. For orientation: IC50 means the concentration needed to halve the response being measured. A low value points to greater potency.

Consider `CC[C@H](C)[C@H](NC(=O)[C@H](Cc1c[nH]c2ccccc12)NC(=O)[C@H](CCC(=O)O)NC(=O)[C@H](CCCCN)NC(=O)[C@H](CC(=O)O)NC(C)=O)C(=O)N[C@@H](CC(C)C)C(=O)N[C@@H](CCC(N)=O)C(=O)N[C@@H](CCCCN)C(=O)N[C@H](C(=O)N[C@@H](Cc1ccc(O)cc1)C(=O)N[C@@H](CCC(=O)O)C(=O)N[C@H](C(=O)N[C@@H](CCSC)C(=O)N[C@@H](CCCNC(=N)N)C(=O)N[C@@H](CC(C)C)C(=O)N[C@@H](CC(C)C)C(=O)N[C@@H](CC(=O)O)C(=O)N[C@@H](CCC(=O)O)C(=O)N[C@@H](CC(C)C)C(=O)NCC(=O)NCCOCCOCCOCCOCCOCCOCCOCCOCCC(=O)NCCOCCOCCOCCOCCOCCOCCOCCOCCC(=O)N[C@@H](CC(=O)O)C(=O)N[C@H]1CSSC[C@@H](C(=O)N[C@H](C(N)=O)[C@@H](C)O)NC(=O)[C@H](Cc2c[nH]c3ccccc23)NC(=O)[C@H](C(C)C)NC(=O)[C@H](CC(C)C)NC(=O)[C@H](CCC(=O)O)NC(=O)CNC(=O)[C@H](CC(C)C)NC(=O)[C@H](Cc2c[nH]cn2)NC(=O)[C@H](Cc2c[nH]c3ccccc23)NC(=O)[C@H](C)NC1=O)[C@@H](C)CC)[C@@H](C)CC` [Compound 151], for which the EC50 on SARS-CoV-2 Spike protein was above 0.01 µM. For the compound `CC[C@H](C)[C@H](NC(=O)[C@H](Cc1c[nH]c2ccccc12)NC(=O)[C@H](CCC(=O)O)NC(=O)[C@H](CCCCN)NC(=O)[C@H](CC(=O)O)NC(C)=O)C(=O)N[C@@H](CC(C)C)C(=O)N[C@@H](CCC(N)=O)C(=O)N[C@@H](CCCCN)C(=O)N[C@H](C(=O)N[C@@H](Cc1ccc(O)cc1)C(=O)N[C@@H](CCC(=O)O)C(=O)N[C@H](C(=O)N[C@@H](CCSC)C(=O)N[C@@H](CCCNC(=N)N)C(=O)N[C@@H](CC(C)C)C(=O)N[C@@H](CC(C)C)C(=O)N[C@@H](CC(=O)O)C(=O)N[C@@H](CCC(=O)O)C(=O)N[C@@H](CC(C)C)C(=O)NCC(=O)N[C@@H](Cc1c[nH]cn1)C(=O)N[C@@H](C)C(=O)N[C@@H](CCC(=O)O)C(=O)N[C@@H](C)C(=O)N[C@@H](CO)C(=O)NCCOCCOCCOCCOCCOCCOCCOCCOCCC(=O)NCCOCCOCCOCCOCCOCCOCCOCCOCCC(=O)N[C@@H](CC(=O)O)C(=O)N[C@H]1CSSC[C@@H](C(=O)N[C@H](C(N)=O)[C@@H](C)O)NC(=O)[C@H](Cc2c[nH]c3ccccc23)NC(=O)[C@H](C(C)C)NC(=O)[C@H](CC(C)C)NC(=O)[C@H](CCC(=O)O)NC(=O)CNC(=O)[C@H](CC(C)C)NC(=O)[C@H](Cc2c[nH]cn2)NC(=O)[C@H](Cc2c[nH]c3ccccc23)NC(=O)[C@H](C)NC1=O)[C@@H](C)CC)[C@@H](C)CC` [Compound 152], at SARS-CoV-2 Spike protein, the EC50 was above 0.1 µM. Regarding `CC[C@H](C)[C@H](NC(=O)[C@H](Cc1c[nH]c2ccccc12)NC(=O)[C@H](CCC(=O)O)NC(=O)[C@H](CCCCN)NC(=O)[C@H](CC(=O)O)NC(C)=O)C(=O)N[C@@H](CC(C)C)C(=O)N[C@@H](CCC(N)=O)C(=O)N[C@@H](CCCCN)C(=O)N[C@H](C(=O)N[C@@H](Cc1ccc(O)cc1)C(=O)N[C@@H](CCC(=O)O)C(=O)N[C@H](C(=O)N[C@@H](CCSC)C(=O)N[C@@H](CCCNC(=N)N)C(=O)N[C@@H](CC(C)C)C(=O)N[C@@H](CC(C)C)C(=O)N[C@@H](CC(=O)O)C(=O)N[C@@H](CCC(=O)O)C(=O)N[C@@H](CC(C)C)C(=O)NCC(=O)N[C@@H](Cc1c[nH]cn1)C(=O)N[C@@H](C)C(=O)N[C@@H](CCC(=O)O)C(=O)N[C@@H](C)C(=O)N[C@@H](CO)C(=O)N[C@@H](CCSC)C(=O)N[C@@H](CCCNC(=N)N)C(=O)N[C@H](C(=O)N[C@@H](CO)C(=O)NCCOCCOCCOCCOCCOCCOCCOCCOCCC(=O)NCCOCCOCCOCCOCCOCCOCCOCCOCCC(=O)N[C@@H](CC(=O)O)C(=O)N[C@H]1CSSC[C@@H](C(=O)N[C@H](C(N)=O)[C@@H](C)O)NC(=O)[C@H](Cc2c[nH]c3ccccc23)NC(=O)[C@H](C(C)C)NC(=O)[C@H](CC(C)C)NC(=O)[C@H](CCC(=O)O)NC(=O)CNC(=O)[C@H](CC(C)C)NC(=O)[C@H](Cc2c[nH]cn2)NC(=O)[C@H](Cc2c[nH]c3ccccc23)NC(=O)[C@H](C)NC1=O)C(C)C)[C@@H](C)CC)[C@@H](C)CC` [Compound 153], the EC50 at SARS-CoV-2 Spike protein was above 0.01 µM. Still for that read-out and setting: with `CC[C@H](C)[C@H](NC(=O)[C@H](CC(C)C)NC(=O)[C@H](CC(=O)O)NC(=O)[C@H](CO)NC(=O)[C@@H](NC(=O)[C@H](CCCNC(=N)N)NC(=O)[C@H](CCSC)NC(=O)[C@H](CO)NC(=O)[C@H](C)NC(=O)[C@H](CCC(=O)O)NC(=O)[C@H](C)NC(=O)[C@H](Cc1c[nH]cn1)NC(=O)CNC(=O)[C@H](CC(C)C)NC(=O)[C@H](CCC(=O)O)NC(=O)[C@H](CC(=O)O)NC(=O)[C@H](CC(C)C)NC(=O)[C@H](CC(C)C)NC(=O)[C@H](CCCNC(=N)N)NC(=O)[C@H](CCSC)NC(=O)[C@@H](NC(=O)[C@H](CCC(=O)O)NC(=O)[C@H](Cc1ccc(O)cc1)NC(=O)[C@@H](NC(=O)[C@H](CCCCN)NC(=O)[C@H](CCC(N)=O)NC(=O)[C@H](CC(C)C)NC(=O)[C@@H](NC(=O)[C@H](Cc1c[nH]c2ccccc12)NC(=O)[C@H](CCC(=O)O)NC(=O)[C@H](CCCCN)NC(=O)[C@H](CC(=O)O)NC(C)=O)[C@@H](C)CC)[C@@H](C)CC)[C@@H](C)CC)C(C)C)C(=O)N[C@@H](Cc1ccc(O)cc1)C(=O)N[C@@H](CCC(=O)O)C(=O)NCCOCCOCCOCCOCCOCCOCCOCCOCCC(=O)NCCOCCOCCOCCOCCOCCOCCOCCOCCC(=O)N[C@@H](CC(=O)O)C(=O)N[C@H]1CSSC[C@@H](C(=O)N[C@H](C(N)=O)[C@@H](C)O)NC(=O)[C@H](Cc2c[nH]c3ccccc23)NC(=O)[C@H](C(C)C)NC(=O)[C@H](CC(C)C)NC(=O)[C@H](CCC(=O)O)NC(=O)CNC(=O)[C@H](CC(C)C)NC(=O)[C@H](Cc2c[nH]cn2)NC(=O)[C@H](Cc2c[nH]c3ccccc23)NC(=O)[C@H](C)NC1=O` [Compound 154] the figure was above 0.1 µM; with `CC[C@H](C)[C@H](NC(C)=O)C(=O)N[C@@H](Cc1ccc(O)cc1)C(=O)N[C@@H](CCC(=O)O)C(=O)N[C@H](C(=O)N[C@@H](CCSC)C(=O)N[C@@H](CCCNC(=N)N)C(=O)N[C@@H](CC(C)C)C(=O)N[C@@H](CC(C)C)C(=O)N[C@@H](CC(=O)O)C(=O)N[C@@H](CCC(=O)O)C(=O)N[C@@H](CC(C)C)C(=O)NCC(=O)N[C@@H](Cc1c[nH]cn1)C(=O)N[C@@H](C)C(=O)N[C@@H](CCC(=O)O)C(=O)N[C@@H](C)C(=O)N[C@@H](CO)C(=O)N[C@@H](CCSC)C(=O)N[C@@H](CCCNC(=N)N)C(=O)N[C@H](C(=O)N[C@@H](CO)C(=O)N[C@@H](CC(=O)O)C(=O)N[C@@H](CC(C)C)C(=O)N[C@H](C(=O)N[C@@H](Cc1ccc(O)cc1)C(=O)N[C@@H](CCC(=O)O)C(=O)N[C@@H](Cc1ccccc1)C(=O)N[C@@H](CCSC)C(=O)N[C@@H](CCCCN)C(=O)N[C@@H](CCCCN)C(=O)NCC(=O)NCCOCCOCCOCCOCCOCCOCCOCCOCCC(=O)NCCOCCOCCOCCOCCOCCOCCOCCOCCC(=O)N[C@@H](CC(=O)O)C(=O)N[C@H]1CSSC[C@@H](C(=O)N[C@H](C(N)=O)[C@@H](C)O)NC(=O)[C@H](Cc2c[nH]c3ccccc23)NC(=O)[C@H](C(C)C)NC(=O)[C@H](CC(C)C)NC(=O)[C@H](CCC(=O)O)NC(=O)CNC(=O)[C@H](CC(C)C)NC(=O)[C@H](Cc2c[nH]cn2)NC(=O)[C@H](Cc2c[nH]c3ccccc23)NC(=O)[C@H](C)NC1=O)[C@@H](C)CC)C(C)C)[C@@H](C)CC` [Compound 156], above 0.1 µM. Compound `CC[C@H](C)[C@H](NC(C)=O)C(=O)N[C@@H](CC(C)C)C(=O)N[C@@H](CCC(N)=O)C(=O)N[C@@H](CCCCN)C(=O)N[C@H](C(=O)N[C@@H](Cc1ccc(O)cc1)C(=O)N[C@@H](CCC(=O)O)C(=O)N[C@H](C(=O)N[C@@H](CCSC)C(=O)N[C@@H](CCCNC(=N)N)C(=O)N[C@@H](CC(C)C)C(=O)N[C@H]1CSSC[C@@H](C(=O)N[C@@H](CCSC)C(=O)N[C@@H](CCCNC(=N)N)C(=O)N[C@H](C(=O)N[C@@H](CO)C(=O)N[C@@H](CC(=O)O)C(=O)N[C@@H](CC(C)C)C(=O)N[C@H](C(=O)N[C@@H](Cc2ccc(O)cc2)C(=O)N[C@@H](CCC(=O)O)C(=O)N[C@@H](Cc2ccccc2)C(=O)N[C@@H](CCSC)C(=O)N[C@@H](CCCCN)C(=O)N[C@@H](CCCCN)C(=O)NCC(N)=O)[C@@H](C)CC)C(C)C)NC(=O)[C@H](C)NC(=O)[C@H](CCC(=O)O)NC(=O)[C@H](C)NC(=O)[C@H](Cc2c[nH]cn2)NC(=O)CNC(=O)[C@H](CC(C)C)NC(=O)[C@H](CCC(=O)O)NC(=O)[C@H](CC(=O)O)NC1=O)[C@@H](C)CC)[C@@H](C)CC` [Compound 180] (Ac-ILQKIYEIMRLCDELGHAEACMRVSDLIYEFMKKG-NH2; disulfide 12-21) returned an IC50 in assay [1] of 0.137 µM.

Compound “{CH2CO}-ASYHLGELVW[Tic][Aib]C[dE]ILQKIYEIMRLLDELGHAEASMRVSDLIYEFMKK (thioether N-13) [Compound 131]” had an IC50 in assay [1] of 0.0315 µM.

The values above are taken from patent US20260306644A1, “ANTIBODY RECRUITING MOLECULES FOR THE TREATMENT OF CORONAVIRUS DISEASE-19” (priority 2023, published 2026).
